We go through 1 substance from patent US9551711B2, “Compositions and methods for detecting nitration of PKG-1α and methods of use thereof” (Augusta University Research Institute, Inc., priority 2013, dated 2017).

Test [1] has as its system PKG-1α. The test is described as follows: PKG-1α protein levels in transfected PASMC (Western blot). In kind it is cell-based, lamb. The settings on record: SIN-1 500 μM, 48 h. The method, then: Therefore, the effect of these events were investigated in PASMC transiently transfected with expression plasmids containing WT- and Y247F-PKG-1α. The effect of nitration on pulmonary arterial smooth muscle cell (PASMC) growth and metabolism was determined. PASMC were transiently transfected with expression plasmids containing WT-PKG-1α, Y247F-PKG-1α or pDEST40 (as a control) for 20 h. Cells were then exposed or not to SIN-1 (500 μM, 48 h) and the effect on PKG protein levels (FIG. 2A) and activity determined (FIG. 2B).
For orientation: Immunoblotting shows a protein as a band on a membrane.

The target in test [2] is T1, PKG-1α (Homo sapiens, UniProt Q13976).
T1 sequence (Q13976 2-671): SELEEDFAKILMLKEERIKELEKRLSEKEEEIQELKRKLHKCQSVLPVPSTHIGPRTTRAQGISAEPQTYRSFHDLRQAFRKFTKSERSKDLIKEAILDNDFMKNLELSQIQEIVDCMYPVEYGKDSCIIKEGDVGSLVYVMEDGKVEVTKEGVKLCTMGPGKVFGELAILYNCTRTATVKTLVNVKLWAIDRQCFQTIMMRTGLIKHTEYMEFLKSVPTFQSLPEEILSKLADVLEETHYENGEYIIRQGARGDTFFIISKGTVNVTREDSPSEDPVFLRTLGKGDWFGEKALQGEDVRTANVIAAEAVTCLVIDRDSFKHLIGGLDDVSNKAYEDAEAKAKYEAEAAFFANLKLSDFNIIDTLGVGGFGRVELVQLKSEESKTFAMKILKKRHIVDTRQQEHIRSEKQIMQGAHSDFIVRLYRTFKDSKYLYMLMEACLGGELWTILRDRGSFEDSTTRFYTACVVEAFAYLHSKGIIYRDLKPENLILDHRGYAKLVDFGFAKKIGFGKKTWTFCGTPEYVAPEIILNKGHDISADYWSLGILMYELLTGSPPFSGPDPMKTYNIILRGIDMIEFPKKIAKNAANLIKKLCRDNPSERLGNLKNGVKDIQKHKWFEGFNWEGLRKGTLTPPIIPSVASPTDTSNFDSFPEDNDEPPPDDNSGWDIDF
Put plainly: [3H]cGMP binding assay on immunopurified PKG-1α. The arrangement: an expression plasmid containing a full length WT-PKG-1α cDNA; made in house; host or cells: HEK-293T; the results paragraph b304 says PASMC. The settings on record: WT-PKG-1α; SIN-1 treatment. The method, then:
HEK-293T cells were transiently transfected with either the WT-PKG-1α or the Y247FPKG-1α cDNA using Effectene transfection reagent (Qiagen), according to the manufacturer's instructions. Briefly, the cells were split the day before the transfection to low cell densities (25%) and were transfected 24 h later. After 48 h of transfection, the cells were incubated in DMEM serum free media containing 1% FBS and antibiotics for 4 h and then treated with or without SIN-1 (500 μM), for 30 min. This method produced an approximate 70% transfection efficiency of HEK-293T cells, as measured using green fluorescent protein vectors. […]
The batches of supernatant were pooled, and 2 μg of anti-PKG-1α antibody per mg of protein were added to the extract and rocked at 4° C. […] After 15 min of agitation at 4° C., the beads were pelleted by centrifugation, and the supernatant containing the PKG-1α protein was collected, quantified using Bradford reagent, and stored at −80° C.
To assay the binding of cGMP to WT- and Y247F-PKG-1α the enzymes were saturated with cGMP by incubating 50 μl aliquots of the diluted PKG constructs for 60 min at room temperature with 50 μl of [^3H]cGMP and 150 μl of cGMP-binding assay mixture (25 mM K2HPO4, 25 mM KH2PO4, 1 mM EDTA, pH 6.8, 2M NaCl, 200 μM 3-isobutyl-1-methylxanthine). […] The dissociation constant (Kd) values were determined using GraphPad Prism graphics. […]

For the substance “3-morpholinosydnonimine N-ethylcarbamide [SIN-1]”, in test [1], the PKG-1α protein levels entry was “no effect”. The “maximal [3H]cGMP binding” value in test [2] was “significantly attenuated”.
